Experimental findings from US20020052409A1, “Compounds and methods for treating mitochondria-associated diseases” (priority 1998, published 2002) are described below.

Molecules are shown by their SMILES.

In data set [1] the test system is 1685 cells. Put plainly: Thapsigargin induced apoptosis (cell death, propidium iodide). The class given is cell-based, human. The settings on record: for cytotoxicity at 100 µM: Homo sapiens, read-out: % Non-Viable Cells with Thapsigargin and with Cmpd.; for cytotoxicity at 100 µM / % Non-Viable Cells with Thapsigargin and with Cmpd.: thapsigargin 1 μM plus agent 100 μM, 24 hours; for Δ Cell Viability: [% Non-Viable Cells (with Thapsigargin, without Cmpd)] − [% Non-Viable Cells (with Thapsigargin, with Cmpd)], agent 100 μM. As for the experimental part: In another aspect of the apoptosis assays, the ratio of living to dead cells, or the proportion of dead cells, in a population of cells exposed to an apoptogen is determined as a measure of the ultimate consequence of apoptosis. Living cells can be distinguished from dead cells using any of a number of techniques known to those skilled in the art.
In order to determine the effect of compounds of this invention on the final endpoint of apoptosis (cell death), the following assays were carried out. […] Cells were plated (3×10^4 cells per well) on 96-well plates 48 hours prior to thapsigargin treatment. Thapsigargin (Calbiochem, La Jolla, Calif.) alone (final concentration, 1 μM), thapsigargin (1 μM) plus agent final concentration, 100 μM), agent alone (100 μM) in growth media, or growth media devoid of both thapsigargin and agent, were added to cells in four separate wells.
Twenty-four hours after thapsigargin +/− agent treatment, propidium iodide (Sigma Chemical Co., St. Louis, Mo.) was added to each well at a final concentration of 10 μg/ml per well. […] The resulting fluorescence values correspond to cells in the monolayer of a well that are non-viable.
(§1) Next, the media was aspirated, and the monolayer was fixed (killed) by adding 100 μl of 100% ethanol to each well followed by incubation at ambient temperature for 10 minutes. The fluorescense in each well was then read again. The fluorescence values resulting from the second reading correspond to the total number of cells (whether viable or non-viable at the time of the initial fluorescence reading) present in the monolayer of a well.

Data set [2] relates to human cytoplasmic hybrid (“cybrid”) cells. As to the kind of experiment: Assay for mitochondrial permeability transition using DASPMI (ionomycin-induced fluorescence decay). The class given is cell-based. The note with it: DASPMI-loaded cybrid cells, ionomycin induced membrane potential collapse.
Excerpt: B. Assay for Mitochondrial Permeability Transition (MPT) Using 2-,4-Dimethvlaminostyryl-N-Methvlpyridinium (DASPMI).
According to this assay, one may determine the ability of a mitochondria protecting agent of the invention to inhibit the loss of mitochondrial membrane potential that accompanies mitochondrial dysfunction. […] This loss of membrane potential or mitochondrial permeability transition (MPT) can be quantitatively measured using the mitochondria-selective fluorescent probe 2-,4-dimethylaminostyryl-N-methylpyridinium (DASPMI).
Upon introduction into cell cultures, DASPMI accumulates in mitochondria in a manner that is dependent on, and proportional to, mitochondrial membrane potential. If mitochondrial function is disrupted in such a manner as to compromise membrane potential, the fluorescent indicator compound leaks out of the membrane bounded organelle with a concomitant loss of detectable fluorescence. Fluorimetric measurement of the rate of decay of mitochondria associated DASPMI fluorescence provides a quantitative measure of loss of membrane potential, or MPT.
Culture supernatants are then removed and various concentrations of candidate mitochondria protecting agents diluted into HBSS from DMF stocks, or vehicle controls, are added at various concentrations. Mitochondria protecting agents are introduced to cells either before, or at the same time as, introduction of the cells to ionomycin (described below).
Fluorescence of each microculture in the 96-well plate is quantified immediately using a Molecular Devices fmax™ fluorimetric plate reader (Molecular Devices Corp., Sunnyvale, Calif.; excitation wavelength=485 nm; emission wavelength=590 nm) and to fluorescence is recorded. Thereafter, induction of mitochondrial membrane potential collapse is initiated by the addition of ionomycin (Calbiochem, San Diego, Calif.). Ionomycin stock solutions of various concentrations from 0.1-40 μM are prepared in warm Hank's balanced salt solution (HBSS) and diluted for addition to cells to achieve a final concentration of 0.05-20 μM, with final concentrations of 4-10 μM being preferred. Fluorescence decay of DASPMI-loaded, ionomycin induced cells is monitored as a function of time from 0-500 seconds following addition of ionomycin. The maximum negative slope (V-max) is calculated from a subset of the data using analysis software provided by the fluorimetric plate reader manufacturer. In addition, the initial and final signal intensities are determined and the effects of candidate mitochondria protecting agents on the rate of signal decay are quantified.
For data set [3], the system named is 1685 cells. Put plainly: Cytotoxic effects of compounds, no thapsigargin (propidium iodide). The class given is cell-based, human. As for the experimental part:
In order to determine the effect of compounds of this invention on the final endpoint of apoptosis (cell death), the following assays were carried out. The cells used were 1685 cells, “1685” being the designation of a cybrid cell line derived from SH-SY5Y and containing mitochondria from a patient having Alzheimer's disease (see U.S. Pat. No. 5,888,498, issued Mar. 30, 1999, hereby incorporated by reference). Cells were plated (3×10^4 cells per well) on 96-well plates 48 hours prior to thapsigargin treatment. Thapsigargin (Calbiochem, La Jolla, Calif.) alone (final concentration, 1 μM), thapsigargin (1 μM) plus agent final concentration, 100 μM), agent alone (100 μM) in growth media, or growth media devoid of both thapsigargin and agent, were added to cells in four separate wells.
Twenty-four hours after thapsigargin +/− agent treatment, propidium iodide (Sigma Chemical Co., St. Louis, Mo.) was added to each well at a final concentration of 10 μg/ml per well. The cells were incubated at ambient temperature for 10 minutes, after which the fluorescence (excitation max=536 nm, 544 nm used for excitation; emission max=617, readings at 612 nm) was determined for each individual well in a fmax™ fluorescence microplate reader (Molecular Devices, Sunnyvale, Calif.). The resulting fluorescence values correspond to cells in the monolayer of a well that are non-viable.
as §1
The results, presented in Table 4 below, are expressed as the percentage of non-viable cells as a proportion of the […] cells (fixed controls).
The ΔCell Viability values resulting from treating cells with agents in this class in the absence of thapsigargin (Table 4, infra) closely parallel the ΔCell Viability values that result when cells are treated with the respective agent and thapsigargin ([…]).

Data set [4] deals with SH-SY5Y neuroblastoma cells. Put plainly: Ionomycin-induced apoptosis in neuroblastoma cells (membrane blebbing, light microscopy). The class given is cell-based, human. The note with it: 2 mM, simultaneously with 10 μM ionomycin; 6h incubation; ionomycin alone approximately 80%, untreated <5%. Here is the method:
SH-SY5Y neuroblastoma cells (1×10^5 cells) were rinsed with one volume 1X PBS, and then treated with 10 μM ionomycin (Calbiochem, San Diego, Cass.) in DMEM supplemented with 10% fetal calf serum (FCS) (Gibco, Life Technologies, Grand Island, N.Y.) for 10 minutes, followed by two washes with DMEM (10% FCS). After 6h incubation at 37° C. in DMEM (10% FCS), cells were visualized by light microscopy (20X magnification). […] When cells were simultaneously treated with ionomycin and 2 mM creatine, the proportion of cells undergoing apoptosis as evidenced by membrane blebbing was reduced to approximately 10%.

Data set [5] deals with cybrid cells (MixCon, 1685 cells). Put plainly: Ionomycin induced apoptosis in cybrid cells: cytochrome c release (ProteinChip/SELDI). The settings on record: 100 μM at the same time ionomycin (10 μM) was introduced; FIGURE. The class given is cell-based, human. An excerpt:
In another aspect of the apoptosis assays, quantification of the mitochondrial protein cytochrome c that has leaked out of mitochondria in apoptotic cells may provide an apoptosis indicator that can be readily determined (Liu et al., Cell 86:147-157, 1996). Such quantification of cytochrome c may be performed spectrophotometrically, immunochemically or by other well established methods for detecting the presence of a specific protein. Release of cytochrome c from mitochondria in cells challenged with apoptotic stimuli (e.g., ionomycin, a well known calcium ionophore) can be followed by a variety of immunological methods. Matrix-assisted laser desorption ionization time of flight mass (MALDI-TOF) spectrometry coupled with affinity capture is particularly suitable for such analysis since apo-cytochrome c and holo cytochrome c can be distinguished on the basis of their unique molecular weights. […] The molecular weight of the protein is determined by its time of flight to the detector of the SELDI mass spectrometer. […]
Cytochrome c antibody was covalently bound to solid support chips containing a pre-activated surface (ProteinChip, Ciphergen, Palo Alto, Calif.). […] After removal of the Tris-saline buffer, the chip was rinsed with 1× PBS and was ready for capture of the antigen. […]

Take `CC(C)(C)c1cc(CNNC(=N)N)cc(C(C)(C)C)c1O` [Compound (1)]: in the data set on 1685 cells [1] ((+thapsigargin, −compound)—(+thapsigargin, +compound), approximate values), the “ΔCell Viability” value is “about 3.5”. In the data set on 1685 cells [1], the cytotoxicity at 100 µM turned out to be 38.3% and the “Δ Cell Viability” value is 3.2%. Take `N=C(N)Nc1ccccc1CO` [(19)]: in the data set with 1685 cells [1], the “% Non-Viable Cells with Thapsigargin and with Cmpd.” value is on record as 44.3%. Consider `N=C(N)Nc1cc(F)cc(F)c1` [(15)], for which, in the data set on 1685 cells [1], the “% Non-Viable Cells with Thapsigargin and with Cmpd.” value was 42.2%. On to `N=C(N)NCCc1ccc(O)c(O)c1` [(28)], for which the “% Non-Viable Cells with Thapsigargin and with Cmpd.” value with 1685 cells [1] was determined as 52.3%. With `N=C(N)Nc1ccc(C(=O)O)cc1` [4-Guanidinobenzoic Acid], half-maximal inhibition in data set [2] (IC50) required 1000 µM. For the compound `CCCCCCOc1ccc(NC(=N)N)cc1` [(16)], the “% Non-Viable Cells with Thapsigargin and with Cmpd.” value with 1685 cells [1] was determined as 121.2%. The “Δ Cell Viability” value in the data set on 1685 cells [3] is −106.7%. Consider `COc1cc(C(=O)O)ccc1NC(=N)N` [(12)], for which, in the data set on 1685 cells [1], the “Δ Cell Viability” value came out at 1.8%; the “% Non-Viable Cells with Thapsigargin and with Cmpd.” value amounted to 37.5%. Take `CN(CC(=O)O)C(=N)N` [Creatine]: the “proportion of cells undergoing apoptosis as evidenced by membrane blebbing” value in data set [4] was “approximately 10%”. 2000 µM corresponded to half-maximal inhibition in data set [2] (IC50). `N=C(N)Nc1ccc(F)cc1` [(17)]: in the data set on 1685 cells [1], the “% Non-Viable Cells with Thapsigargin and with Cmpd.” value is recorded as 56.9%. The “Δ Cell Viability” value with 1685 cells [3] is listed as −23.6%. In the case of `NC1=NCCN1CC(=O)O` [Cyclocreatine], in data set [2], inhibition was half-maximal at 3000 µM (IC50). Regarding `CN(Cc1cc(C(C)(C)C)c(O)c(C(C)(C)C)c1)NC(=N)N` [Compound (4)], in the data set on 1685 cells [1], the cytotoxicity at 100 µM worked out at 43.8% and the “Δ Cell Viability” value turned out to be 2.1%. In data set [2], the midpoint of inhibition, the IC50, lay at 10 µM.

In the case of `N=C(N)NC(=N)Nc1ccccc1` [(1 1)], the cytochrome c release result in data set [5] was “attenuation of cytochrome release”. `COc1cc(NC(=N)N)cc(OC)c1OC` [(3)]: the “% Non-Viable Cells with Thapsigargin and with Cmpd.” value in the data set on 1685 cells [1] came out at 46.7%. Take `CCCCCCCCc1ccc(NC(=N)N)cc1` [Compound (31)]: in the data set on 1685 cells [1], the “% Non-Viable Cells with Thapsigargin and with Cmpd.” value was found to be 100.0%. In addition, in the data set on 1685 cells [3], the “Δ Cell Viability” value is −83.5%. `COc1cc(NC(=N)N)c(Cl)cc1C(=O)O` [(13)]: in the data set on 1685 cells [1], the “% Non-Viable Cells with Thapsigargin and with Cmpd.” value is recorded as 52.8%. For the same compound, the “Δ Cell Viability” value with 1685 cells [3] is −22.2%. Take `N=C(N)NC(=N)Nc1ccc(C(=O)O)cc1` [(34)]: in the data set on 1685 cells [1], the “Δ Cell Viability” value is 2.9%; the “% Non-Viable Cells with Thapsigargin and with Cmpd.” value amounted to 42.4%. Consider `N=C(N)Nc1cc(C(F)(F)F)cc(C(F)(F)F)c1` [(14)], for which the “% Non-Viable Cells with Thapsigargin and with Cmpd.” value in the data set with 1685 cells [1] is 47.9%.

With `CCCCCCCCc1ccc(O)c(NC(=N)N)c1` [Compound (6)], in the data set on 1685 cells [1], the cytotoxicity at 100 µM was found to be 122%. Also, the “Δ Cell Viability” value in the data set on 1685 cells [3] (no thapsigargin, [% Non-Viable Cells (without Cmpd)] − [% Non-Viable Cells (with Cmpd)]) was −109.0%. For the same compound, the “% Non-Viable Cells with Cmpd.” value with 1685 cells [3] (no thapsigargin, agent alone 100 μM, 24 hours) is 125.2%. For `N=C(N)Nc1ccc(O)c(C(=O)O)c1` [(23)], in the data set with 1685 cells [1], the “Δ Cell Viability” value came out at 0.6%; the “% Non-Viable Cells with Thapsigargin and with Cmpd.” value was 49.8%. Turning to `N=C(N)Nc1ccc(N2CCOCC2)cc1` [(27)], in the data set on 1685 cells [1], the “Δ Cell Viability” value is 7.9%; the “% Non-Viable Cells with Thapsigargin and with Cmpd.” value turned out to be 42.5%.
